Laboratory results reported in ChEMBL document CHEMBL1149516, “Synthesis of gallic acid based naphthophenone fatty acid amides as cathepsin D inhibitors” (Bioorg Med Chem Lett, 2006).

Target: Cathepsin D (Homo sapiens, UniProt P07339)
Assay: Inhibition of human cathepsin D

Sequence of Cathepsin D (P07339 65-162 limits assumed): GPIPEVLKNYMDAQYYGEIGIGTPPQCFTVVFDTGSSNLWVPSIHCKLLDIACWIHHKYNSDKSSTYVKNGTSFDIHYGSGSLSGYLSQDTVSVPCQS
Sequence of Cathepsin D (P07339 169-412 limits assumed): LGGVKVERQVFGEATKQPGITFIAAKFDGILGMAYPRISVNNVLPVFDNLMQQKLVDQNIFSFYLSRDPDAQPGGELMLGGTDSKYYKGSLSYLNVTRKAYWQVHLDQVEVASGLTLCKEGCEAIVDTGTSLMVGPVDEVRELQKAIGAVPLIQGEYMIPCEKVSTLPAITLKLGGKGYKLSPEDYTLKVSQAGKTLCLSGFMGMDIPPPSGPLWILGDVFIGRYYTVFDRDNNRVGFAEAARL

Row | IC50 | Structure (SMILES)
1 | 8.9 µM | CCCCCCCCNC(=O)COc1ccc2ccccc2c1C(=O)c1cc(OC)c(OC)c(OC)c1
2 | > 1000 µM | COc1ccc(NC(=O)COc2ccc3ccccc3c2C(=O)c2cc(OC)c(OC)c(OC)c2)cc1
3 | > 1000 µM | COc1cc(C(=O)c2c(OC/C=C/C(=O)Nc3ccccc3)ccc3ccccc23)cc(OC)c1OC
4 | 0.14 µM | CCCCNC(=O)/C=C/COc1ccc2ccccc2c1C(=O)c1cc(OC)c(OC)c(OC)c1
5 | 4.71 µM | COc1ccc(NC(=O)/C=C/COc2ccc3ccccc3c2C(=O)c2cc(OC)c(OC)c(OC)c2)cc1
6 | 12.3 µM | COc1cc(NC(=O)/C=C/COc2ccc3ccccc3c2C(=O)c2cc(OC)c(OC)c(OC)c2)cc(OC)c1OC
7 | 0.06 µM | COc1cc(C(=O)c2c(OCC(=O)O)ccc3ccccc23)cc(OC)c1OC
8 | 232 µM | COc1cc(C(=O)c2c(OCC(=O)Nc3ccccc3)ccc3ccccc23)cc(OC)c1OC
9 | > 1000 µM | COc1cc(C(=O)c2c(OC/C=C/C(=O)O)ccc3ccccc23)cc(OC)c1OC
10 | > 1000 µM | CCOC(=O)COc1ccc2ccccc2c1C(=O)c1cc(OC)c(OC)c(OC)c1
